Each structure is given as a SMILES string.

Results on nine molecules are retold here after patent publication US7915299B2, “2-(2-hydroxyphenyl)benzimidazoles useful for treating obesity and diabetes” (High Point Pharmaceuticals, LLC, priority 2006, dated 2011).

As a reminder, the melting point is the temperature of the solid-liquid transition. Take `Cc1c(Cl)cc(C(C)(C)C)c(O)c1-c1nc2cc(S(=O)(=O)C(F)(F)F)ccc2[nH]1` [Example 1, 6-tert-Butyl-4-chloro-3-methyl-2-(5-trifluoromethanesulfonyl-1H-benzimidazol-2-yl)-phenol]: the melting point was 253 to 254 °C.
The molecule `Cc1ccc(C(C)(C)C)c(O)c1-c1nc2cc(C#N)ccc2[nH]1` [Example 4, 2-(3-tert-Butyl-2-hydroxy-6-methyl-phenyl)-1H-benzimidazole-5-carbonitrile] yielded a melting point of 212 to 215 °C.
Next, `CCN(CC)S(=O)(=O)c1ccc2[nH]c(-c3c(C)c(Cl)cc(C(C)(C)C)c3O)nc2c1` [Example 6, 2-(3-tert-Butyl-5-chloro-2-hydroxy-6-methyl-phenyl)-1H-benzimidazole-5-sulfonic acid diethylamide]: 277 to 278 °C; `Cc1c(Cl)cc(C(C)(C)C)c(O)c1-c1nc2cc(OC(F)(F)F)ccc2[nH]1` [Example 7, 6-tert-Butyl-4-chloro-3-methyl-2-(5-trifluoromethoxy-1H-benzimidazol-2-yl)-phenol]: 243 to 244 °C.
The same measure for `COc1ccc(C(C)(C)C)c(O)c1-c1nc2cc(S(=O)(=O)C(F)(F)F)ccc2[nH]1` [Example 8, 6-tert-Butyl-3-methoxy-2-(5-trifluoromethanesulfonyl-1H-benzimidazol-2-yl)-phenol]: 55 to 56 °C; for `CSc1cc(C(C)(C)C)c(O)c(-c2nc3cc(S(=O)(=O)C(F)(F)F)ccc3[nH]2)c1C` [Example 9, 6-tert-Butyl-3-methyl-4-methylsulfanyl-2-(5-trifluoromethanesulfonyl-1H-benzimidazol-2-yl)-phenol]: 210 to 211 °C; for `Cc1c(F)cc(C(C)(C)C)c(O)c1-c1nc2ccc(S(=O)(=O)C(F)(F)F)cc2[nH]1` [Example 11, 6-tert-Butyl-4-fluoro-3-methyl-2-(5-trifluoromethanesulfonyl-1H-benzimidazol-2-yl)-phenol]: 245 to 247 °C.
As to `Cc1ccc(C(C)(C)C)c(O)c1-c1nc2ccc(S(=O)(=O)C(F)(F)F)cc2[nH]1` [Example 12, 6-tert-Butyl-3-methyl-2-(5-trifluoromethanesulfonyl-1H-benzimidazol-2-yl)-phenol], the melting point is 218 to 220 °C.
Next, `Cc1c(Br)cc(C(C)(C)C)c(O)c1-c1nc2cc(OC(F)(F)F)ccc2[nH]1` [Example 13, 6-tert-Butyl-4-bromo-3-methyl-2-(5-trifluoromethoxy-1H-benzimidazol-2-yl)-phenol]: 235 to 236 °C.
